The supplement of paper PMC13380429
± gives the standard deviation of the averaged measurements.

Legend:
Settings in all cases: 72 h
HepG2 [1] = assay: cell viability relative to DMSO; higher = less toxic
Vero E6 [2] = assay: as above
Calu-3 [3] = assay: as above
Caco-2 [4] = assay: as above
U2OS [5] = assay: as above
HepG2 [6] = assay: relative viability EC50 (midpoint between 100% and the lowest measured viability); higher = less toxic
Vero E6 [7] = assay: as above
Calu-3 [8] = assay: as above
Caco-2 [9] = assay: as above
U2OS [10] = assay: as above
HepG2 [11] = assay: drug sensitivity score (DSS) for viability; higher = more toxic; extreme values may be limits of the assay
Vero E6 [12] = assay: as above
Calu-3 [13] = assay: as above
Caco-2 [14] = assay: as above
U2OS [15] = assay: as above

Compound | cell viability (HepG2 [1]; 1 nM) [%] | cell viability (HepG2 [1]; 10 nM) [%] | cell viability (HepG2 [1]; 100 nM) [%] | cell viability (HepG2 [1]; 1000 nM) [%] | cell viability (HepG2 [1]; 10000 nM) [%] | cell viability (Vero E6 [2]; 1 nM) [%] | cell viability (Vero E6 [2]; 10 nM) [%] | cell viability (Vero E6 [2]; 100 nM) [%] | cell viability (Vero E6 [2]; 1000 nM) [%] | cell viability (Vero E6 [2]; 10000 nM) [%] | cell viability (Calu-3 [3]; 1 nM) [%] | cell viability (Calu-3 [3]; 10 nM) [%] | cell viability (Calu-3 [3]; 100 nM) [%] | cell viability (Calu-3 [3]; 1000 nM) [%] | cell viability (Calu-3 [3]; 10000 nM) [%] | cell viability (Caco-2 [4]; 1 nM) [%] | cell viability (Caco-2 [4]; 10 nM) [%] | cell viability (Caco-2 [4]; 100 nM) [%] | cell viability (Caco-2 [4]; 1000 nM) [%] | cell viability (Caco-2 [4]; 10000 nM) [%] | cell viability (U2OS [5]; 1 nM) [%] | cell viability (U2OS [5]; 10 nM) [%] | cell viability (U2OS [5]; 100 nM) [%] | cell viability (U2OS [5]; 1000 nM) [%] | cell viability (U2OS [5]; 10000 nM) [%] | relative viability EC50 (HepG2 [6]) [µM] | relative viability EC50 (Vero E6 [7]) [µM] | relative viability EC50 (Calu-3 [8]) [µM] | relative viability EC50 (Caco-2 [9]) [µM] | relative viability EC50 (U2OS [10]) [µM] | drug sensitivity score (HepG2 [11]) | drug sensitivity score (Vero E6 [12]) | drug sensitivity score (Calu-3 [13]) | drug sensitivity score (Caco-2 [14]) | drug sensitivity score (U2OS [15])
NC(=O)C1=CN([C@@H]2O[C@H](COP(=O)(O)OP(=O)(O)OC[C@H]3O[C@@H](n4cnc5c(N)ncnc54)[C@H](OP(=O)(O)O)[C@@H]3O)[C@@H](O)[C@H]2O)C=CC1 [NADPH] | 101 | 104 | 97.7 | 86.2 | 104 | 105 | 86 | 103 | 94.6 | 99.5 | 90.8 | 85.1 | 87.7 | 91 | 101 | 86.7 | 92.7 | 88.4 | 93 | 91.9 | 94.1 | 101 | 98.4 | 102 | 98.1 | > 10 | > 10 | > 10 | > 10 | > 10 | 0 | 0 | 0.1 | 0 | 0
COC(=O)c1sccc1S(=O)(=O)Nc1ccc(Nc2ccccc2)cc1OC [GSK0660] | 91.4 | 109 | 102 | 101 | 92.6 | 91.9 | 104 | 94.8 | 102 | 104 | 106 | 102 | 101 | 93.1 | 102 | 96.8 | 86.2 | 104 | 105 | 98.9 | 101 | 95.4 | 98.8 | 95.5 | 93.5 | > 10 | > 10 | > 10 | > 10 | > 10 | 0 | 0 | 0 | 0 | 0
CCCN1CCC[C@@H]2Cc3nc(N)ncc3C[C@H]21 [quinelorane] | 95.9 | 94.1 | 97.6 | 91.8 | 96.4 | 102 | 99.6 | 101 | 93.2 | 99 | 102 | 99 | 93.2 | 103 | 105 | 101 | 92.9 | 98.6 | 85.7 | 104 | 103 | 105 | 102 | 97.1 | 98.5 | > 10 | > 10 | > 10 | > 10 | > 10 | 0 | 0 | 0 | 0 | 0
COc1cc(C[C@@H](CO[C@@H]2O[C@H](CO)[C@@H](O)[C@H](O)[C@H]2O)[C@H](CO[C@@H]2O[C@H](CO)[C@@H](O)[C@H](O)[C@H]2O)Cc2ccc(O)c(OC)c2)ccc1O [secoisolariciresinol-diglucoside] | 98.7 | 104 | 102 | 111 | 110 | 95.6 | 101 | 93.6 | 97.8 | 110 | 103 | 92.9 | 87.4 | 103 | 102 | 100 | 93.6 | 96.7 | 99.4 | 108 | 94 | 96.7 | 101 | 101 | 97.9 | > 10 | > 10 | > 10 | > 10 | > 10 | 0 | 0 | 0 | 0 | 0
COc1ccc(C2CNC(=O)C2)cc1OC1CCCC1 (stereo not given) [rolipram] | 102 ± 3.5 | 102 ± 6.4 | 101 ± 5.8 | 106 ± 5.5 | 101 ± 2.2 | 93.6 ± 10 | 95.1 ± 8.9 | 94.4 ± 4.2 | 96.8 ± 4.5 | 102 ± 4.8 | 98.2 ± 12 | 97.6 ± 12 | 103 ± 5.5 | 98.4 ± 3.5 | 103 ± 1.6 | 95.2 ± 7.2 | 96.4 ± 2.8 | 97.7 ± 5.3 | 98.8 ± 7.4 | 110 ± 4.9 | 96.2 ± 1.5 | 97 ± 4.4 | 96.1 ± 2.3 | 99.1 ± 0.14 | 101 ± 2.9 | > 10 | > 10 | > 10 | > 10 | > 10 | 0 | 0.0667 ± 0.12 | 0 | 0 | 0
O=c1c(-c2ccc(O)cc2)coc2c([C@@H]3O[C@H](CO)[C@@H](O)[C@H](O)[C@H]3O)c(O)ccc12 [kakonein] | 95.7 | 97.7 | 84.6 | 99.6 | 93.5 | 98 | 103 | 99.1 | 95.3 | 91.8 | 104 | 99.3 | 111 | 102 | 95.5 | 122 | 104 | 108 | 106 | 96.3 | 99.2 | 95.1 | 99.3 | 95.2 | 97.9 | > 10 | > 10 | > 10 | > 10 | > 10 | 0 | 0 | 0 | 0 | 0
CCC(C(=O)O)c1ccc(CC(C)C)cc1 (stereo not given) [butibufen] | 107 | 101 | 99 | 110 | 106 | 93.3 | 92.5 | 87.6 | 95.9 | 105 | 97.1 | 105 | 99.9 | 113 | 105 | 102 | 92.8 | 103 | 94.4 | 99.3 | 97.4 | 95.5 | 97.9 | 102 | 104 | > 10 | > 10 | > 10 | > 10 | > 10 | 0 | 0 | 0 | 0 | 0
